Measured values reported in patent US10704075B2, “Method for determining the reaction of a microorganism to its exposure to a chemical compound” (bioMérieux, priority 2015, dated 2020).

Columns and labels:
[1] = system: Escherichia coli strain ATCC 35421 called "EC21"; experiment: Raman spectroscopy analysis of individual bacteria exposed to an antibiotic (method of the invention), strain EC21; format: cell-based
Method: A test identical to that of Example 1 is conducted on another strain of Escherichia coli, the strain ATCC 35421 called “EC21” allows confirming the discriminatory nature of the measurement.
In order to illustrate the discriminating power of this method, the same test performed for a strain of Escherichia coli ATCC 35421 resistant to amoxicillin called “EC21” is also shown.
A solution containing the bacteria to be tested, EC10 or EC21, is used as test sample. This solution is obtained by suspending 5 10^7 CFU/mL in water in order to have a concentration potentially encountered in a clinical sample, for example a urine collection. This bacteria solution is distributed in 5 filter tubes (for example MICROCON (Centrifugal filters) YM100 from Millipore) at a rate of 150 μL per tube. A sufficient amount is added to each of these tubes for the final 250 μL of physiological medium allowing the growth constituted in this example of a mixture of PBS of final concentration of 1× (obtained from the PBS tablets of the reference A9162,0100 of the brand AppliChem), of a nutrient medium TSB 0.1× (for example obtained from Bouillon TSB-T […] A8523-10ML of Sigma-Aldrich) as follows: • c0=0 μg/mL • c1=2 μg/mL • c2=4 μg/mL • c3=8 μg/mL • c4=16 μg/mL
The 5 tubes obtained accordingly are incubated for 2 hours at 37° C. with stirring. Centrifugation at 1200 g for 8 minutes using a centrifuge adapted to the used containers (for example the model 8415C of the brand Eppendorf) then allows retrieving a bacterial pellet on the filter portion of each tube and eliminating the medium. The bacterial pellets are respectively resuspended in water in order to carry out a washing before being again pelletized by centrifugation (1200 g for 10 minutes) always on the filter portion of the tube. These pellets are distributed on a glass slide of the Marienfield type constituting the interface I (not functionalized in this configuration) by means of a swab in corresponding chambers noted C0 to C4. […]

[2] = system: Escherichia coli strain ATCC 25922; conditions: quality control range; cited from earlier work
E. coli = conditions: cited from earlier work

Molecule: CC1(C)S[C@@H]2[C@H](NC(=O)[C@H](N)c3ccc(O)cc3)C(=O)N2[C@H]1C(=O)O [amoxicillin]
- MIC ([1]; Escherichia coli, ATCC35421, Raman, tested 0, 4 and 8 μg/mL, N=11, read-out: MIC assigned by the method of the invention): > 8 µg/mL
- category assigned to the vast majority of the measured groups ([1]; amoxicillin 4 and 8 μg/mL, N=11, FIG. 7): without ATB effect
- EUCAST range of MIC variations (acceptable variation range) [2]: 2 to 8 µg/mL

Molecule: gentamicin
- percentage of performed tests that do not show a characteristic effect profile of the antibiotic agent ([1]; gentamicin 8 μg/mL, N=5, M=133): 100%
- typical MIC, or epidemiological cut-off of the species (E. coli): 2 μg/mL
